Data taken from patent US5334588A, “Composition for inhibiting transmission of hepatitis B virus” (priority 1991, dated 1994).
Like-named read-outs stand apart in the source and are kept apart here.

Columns and labels:
[1] = system: ARV-2 strain of AIDS virus; assay: Infectivity of ARV-2 strain of AIDS virus in H9 cells (Table 2); format: cell-based; conditions: for % Infection: 15 min preincubation, 24 h
Method: A stock solution of virus containing 3 to 5×10^4 infectious virus particles/ml was preincubated with the various drugs as indicated in Table 2 for 15 minutes. The virus sample was then diluted 4-fold in order to reduce the concentrations of the drugs below levels toxic to H9 cells (see Example 3 below) and mixed with 250,000 H9 cells in a total volume of 1 ml. After 24 hours, the cells were assayed to determine the percentage of the culture expressing viral antigen. This time interval was selected as it allows for only a single round of viral infection to have occurred such that the number of cells infected was a direct reflection of the number of infectious virions present in the original sample.

H9 cells = conditions: for % Viab (live cells/live & dead) / Viable Cells/ml: 10 min exposure; for % Viab (live cells/live & dead): after 24 h; for Viable Cells/ml: viability after 24 h
Method: The toxicity of the various agents used in the antiviral compositions of the invention to human T4 -lymphocytes (H9 cells and marophages which are the carriers of the AIDS virus) may be relevant to the effectiveness of a drug. This is because killing these cells when present in semen or vaginal fluids may lead to release of virus making it more susceptible to the effects of the drug. With this in mind, the effect of short exposure (10 minutes) of AgSD and other drugs on H9 cells was tested by treating a suspension of H9 cells (1.6×10^6 /ml in HBSS) with […] of each drug or drug combination. After incubating for 10 minutes, the cells were washed twice in thirty volumes of HBSS; resuspended in RPMI 10% FCS+NaPyruvate and plated into 24 well plates at 4×10^5 cells/mi. Cell viability was determined after 24 hours and is reported as numbers of viable cells per ml and viable percentage (live cells/live cells+dead cells) in Table 3A.

Staph. aureus [2] = assay: Antibacterial efficacy of coated I.V. catheters, Bioassay A (Table 8); format: cell-based; conditions: Polyurethane I.V. catheter, silicone matrix coating; 10^4 CFU Staph. aureus
From the text: The coatings were applied by dipping and then drying.
Staph. aureus is used to challenge the I.V. catheter.

macrophages = assay: Rate of killing of macrophage by drugs, trypan-blue (Table 3B); format: cell-based, mouse; conditions: 100 μg; 20 min incubation; control 36% kill
Method: In the experiment, peritonial normal mouse macrophages were enriched by attaching to petri dishes and adjusted to a cell concentration of 5 to 10×10^6 /ml. 0.1 ml aliquots of this suspension were plated in microtiter plates and 10μ and 5μ of each of four samples was added. The control plate received PBS only. After 20 minutes of incubation in a […], the cells were tested for viability using tryphan-blue dye.

Staph. aureus [3] = assay: Antibacterial efficacy of drug coated gloves against Staph. aureus (Table 9); format: cell-based; conditions: 1% in coating solution
Method: The fingers of latex gloves were washed and dried. They were then sprayed with a fine mist spray of a coating solution to provide a uniform coating of solution on the glove surface, sufficient to provide complete wetting thereof without runoff. The coating solutions were prepared by dissolving 1% Silicate®Medical Adhesive Type A and 1% of the silicone MDX4-4159 in ethyl acetate, followed by dissolving and dispersing the chlorhexidine acetate and silver sulfadiazine, respectively, therein. The coating was air dried for 24 hours and the gloves tested using the following test:
Treated glove fingers were draped over the tops of culture tubes with the treated side with sprayed on coating forming the inside of the cup shape. Then 3.0 ml of TSB containing 10^4 colony forming units of Staph. aureus was dispensed in each finger and all placed in a water bath shaker at 37° C. Samples were removed at 15 minutes, 1 hour, 2 hours, and 4 hours, diluted 1-10, and the solution plated on blood agar in 2.0 ml amounts.

HSV = assay: Toxicity of drugs for HSV, titer on vero cells (Table 7A); format: cell-based; conditions: 200 μl of 500 μg/ml stock added to 1 ml virus, 20 min at R.T.; for Titer: read after 48 hours
Method: One ml HSV at 3 × 10^6/ml was incubated with 200 μliters of
drugs each 500 μg/ml stock solution. After 20 minutes at
R.T., the virus was titered on monolayers of vero cells,
incubatwd for 2 hours, then overlayed with methyl cellulose.
Virus titers were read after 48 hours. No drug toxicity* was […]

Candida albicans [4] = assay: Antifungal efficacy of drug coated gloves against Candida albicans (Table 5B); format: cell-based; conditions: treated glove
Method: Treated glove fingers were draped over the top of culture
tubes with the treated side foring the inside of the cup
shape. Then 3.0 ml of TSB contining 10^3 organisms of Candida
albicans was dispensed in each finger and all placed in the
water bath shaker at 37° C. Samples were removed at 15
minutes, 1 hour, 2 hours, and 4 hours. They were diluted 1-
10 and plated on blood agar in 2.0 ml amounts.

Gonococcus = assay: Killing of Gonococcus (Table 6); format: cell-based; conditions: for Colony Counts in Culture: control >50,000
Method: Drugs were suspended in 5 ml of cultures containing […] of
gonoccccus and incubated. Aliquots were removed at 5 and 10 minute
intervals and subcultured for colony counts.

Candida albicans [5] = assay: Rate of killing of Candida albicans on short exposure (Table 5A); format: cell-based; conditions: 10 minute incubation, control >50,000
Method: 3 ml of Saboraud broth containing 10^5 organism of Candida albicans
were incubated with the above drug. Aliquots were removed at 5 and 10
minute and were subcultured.

[6] = system: Rauscher Leukemia Virus (RLV); assay: Infectivity of Rauscher Leukemia Virus (RVB3) in mice, spleen weight (Table 4); format: in vivo, Balb/CICR mice; conditions: 2% drug in coating solution, 20 days; for Weight of Spleen: average of 6 animals, infected glove control 1,627; for Weight Increase from Control: infected glove control 1,541
Method: In vivo tests were performed using Rauscher Leukemia Virus (RLV), a recognized retrovirus model (see, e.g., Nature 323, 467-469 (1986); Rupecht et al., Proc. Nat'l. Acad. Sci. USA 82, 7733-7737 (1985)) which is used by the FDA in testing drugs for use in treating AIDS. RLV was introduced into Balb/CICR mice in which it infects the spleen. The level of virus infectivity was quantified by determining the weight increase of the mouse spleen after 20 days from infection.
Each treatment was prepared by incubating 1.5 ml Dulbecco's Phosphate Buffered Saline (PBS) for 10 minutes at 37° C. in the finger tip of a latex glove. After incubation, as much as possible of the material was removed from the glove. 0.4 ml of PBS was then introduced into the glove and this was the sample which was introduced into the animals. […] Thus two of the groups only had four animals each that were considered.
[…] Each treatment was prepared by incubating 0.4 ml sterile PBS containing RVB3 (a strain of RLV) for 10 minutes in a glove tip which had previously had one of drugs or straight PBS incubated in it as described above. Three additional controls, a PBS containing glove with no virus, a virus sample not incubated in a glove, and a PBS sample not incubated in a glove were also run.

HIV-I = conditions: 10 minutes exposure; HIBICLENS or HIBISTAT dilutions; C3-44 cells; cited from earlier work

## [H]/N=C(\N/C(=N/[H])NCCCCCCNC(=N)NC(=N)Nc1ccc(Cl)cc1)Nc1ccc(Cl)cc1 [CHA, chlorhexidine acetate]
[1]; H9, 24 h, drug during incubation 10 μg/ml, final 2.5 μg/ml, read-out: % Infection v. Control
  % infection versus control at 2.5 µg/mL: 108%
[1]; drug during incubation 10 μg/ml, final 2.5 μg/ml
  % Infection: 3.35%
H9 cells
  condition of cells: Cells in terrible condition.
H9 cells; 50 (ml/ml as printed in text)
  % Viab (live cells/live & dead): 73%
H9 cells; 100 (ml/ml as printed in text)
  % Viab (live cells/live & dead): 20%
Staph. aureus [2]
  Days of Activity: 2 days
macrophages
  % Kill: 100%

## [H]/N=C(\N/C(=N/[H])NCCCCCCNC(=N)NC(=N)Nc1ccc(Cl)cc1)Nc1ccc(Cl)cc1 [Chlorhexidine, chlorhexidine]
[1]; 10 μg/ml
  viral infectivity: did not itself reduce viral infectivity
[1]; low concentrations, combination compared with AgSD alone
  effectiveness for reducing infectivity of AIDS virus: no effect on infectivity of AIDS virus
Staph. aureus [3]; 15 min., control 12,000
  Colony Counts in Culture: 100
Staph. aureus [3]; 1 hour, control 15,000
  Colony Counts in Culture: 0
Staph. aureus [3]; 2 hours, control 20,000
  Colony Counts in Culture: 0
Staph. aureus [3]; 4 hours, control 50,000
  Colony Counts in Culture: 0
HSV
  % Inhibition: 0%
  Titer: 2.7 × 10^6
Candida albicans [4]; 1 Hour, control 2,000
  Colony Counts in Culture: 0
Candida albicans [4]; 2 Hours, control 4,000
  Colony Counts in Culture: 0
Candida albicans [4]; 4 Hours, control 6,000
  Colony Counts in Culture: 0
Candida albicans [4]; 15 Minutes, control 1,400
  Colony Counts in Culture: 75
Gonococcus; 100 μg/ml, 5 Minutes
  Colony Counts in Culture: 2,000
Gonococcus; 100 μg/ml, 10 Minutes
  Colony Counts in Culture: 10
Candida albicans [5]; concentration 100 (unit not given)
  Colony Counts in Culture: 30
[6]
  Weight of Spleen: 234 mg
  Weight Increase from Control: 148 mg

## CC(=O)O[C@H]1C[C@@]2(C)[C@@H](C[C@@H](O)[C@H]3[C@@]4(C)CC[C@@H](O)[C@@H](C)[C@@H]4CC[C@@]32C)/C1=C(\CCC=C(C)C)C(=O)O [Fusidic acid]
[6]
  Weight of Spleen: 107 mg
  Weight Increase from Control: 21 mg

## C[C@H](CCC(=O)O)[C@H]1CC[C@H]2[C@@H]3CC[C@@H]4C[C@H](O)CC[C@]4(C)[C@H]3C[C@H](O)[C@]12C [NaDC, sodium deoxycholate]
[1]; H9, 24 h, read-out: % Infection v. Control
  % infection versus control at 10 µg/mL: 108%
[1]; drug during incubation 40 μg/ml, final 10.0 μg/ml
  % Infection: 3.35%
H9 cells; 50 (ml/ml as printed in text)
  % Viab (live cells/live & dead): 73%
  Viable Cells/ml: 1.2 × 10^6 Cells/ml
H9 cells; 100 (ml/ml as printed in text)
  % Viab (live cells/live & dead): 44%
  Viable Cells/ml: 2.0 × 10^6 Cells/ml
HSV
  % Inhibition: 0%
  Titer: 3.2 × 10^6
Gonococcus; 1,000 μg/ml, 5 Minutes
  Colony Counts in Culture: 12,000
Gonococcus; 1,000 μg/ml, 10 Minutes
  Colony Counts in Culture: 4,000
Candida albicans [5]; concentration 1,000 (unit not given)
  Colony Counts in Culture: 8,000
[6]
  Weight of Spleen: 109 mg
  Weight Increase from Control: 23 mg

## N=C(NCCCCCCNC(=N)NC(=N)Nc1ccc(Cl)cc1)NC(=N)Nc1ccc(Cl)cc1.O=C(O)[C@H](O)[C@@H](O)[C@H](O)[C@H](O)CO.O=C(O)[C@H](O)[C@@H](O)[C@H](O)[C@H](O)CO [chlorohexidine gluconate]
HIV-I
  concentration not effective to prevent HIV-I infection: ≤ 0.01%

## benzalkonium chloride
HSV
  % Inhibition: 98%
  Titer: 5.2 × 10^4

## nonoxynol
Gonococcus; 0.1%, 5 Minutes
  Colony Counts in Culture: 40
Gonococcus; 0.1%, 10 Minutes
  Colony Counts in Culture: 70
Gonococcus; general statement
  effectiveness against gonococcus: effective against gonococcus
Candida albicans [5]; 0.2%
  Colony Counts in Culture: > 50,000
